Data reported in the supplement of paper PMC10307832.

Experiments:
Experiment in all cases: relative viability (nuclei count vs DMSO), 5 days (fraction); higher = more cells survive
[1] = compound: Cc1nc(C(=O)NCC(=O)O)c(O)c2ccc(Oc3ccccc3)cc12 [FG-4592] + N=C(N)NC(=N)NCCc1ccccc1 [Phenformin] (partner 250 µM)
How it was run: (§1)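 Lung cancer cell lines in 1536-well plates got either a single drug or a fixed anchor-drug dose together with five library-drug doses (not always all listed) in √10 steps, by pin tool, on the day after seeding. Nuclei were counted after 5 days, and relative viability is the treated-to-vehicle ratio of nuclei counts. Values are medians of duplicate plates.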

[2] = compound: CC1=CC(=C(N1C2=CC=C(C=C2)Cl)C)C(=O)CN3CCCCC3 [IU1-47] + CC(C)C[C@H](NC(=O)[C@H](Cc1ccccc1)NC(=O)c1cnccn1)B(O)O [Bortezomib] (partner 0.002 µM)
How it was run: as §1

[3] = compound: Cc1nc(C(=O)NCC(=O)O)c(O)c2ccc(Oc3ccccc3)cc12 [FG-4592] + NC(=O)Nc1cc(-c2cccc(F)c2)sc1C(=O)N[C@H]1CCCNC1 [AZD7762] (partner 0.2 µM)
How it was run: as §1

[4] = compound: CC1=CC(=C(N1C2=CC=C(C=C2)Cl)C)C(=O)CN3CCCCC3 [IU1-47] + O=C(CCCCCCC(=O)Nc1ccccc1)NO [Vorinostat] (partner 1 µM)
How it was run: as §1

## NCI-H1792
[1]; first compound 0.08 µM
  relative viability: 0.355
[1]; first compound 0.253 µM
  relative viability: 0.247
[1]; first compound 2.53 µM
  relative viability: 0.352
[1]; first compound 8 µM
  relative viability: 0.24
[2]; first compound 0.08 µM
  relative viability: 1.03
[2]; first compound 0.253 µM
  relative viability: 1.07
[2]; first compound 0.8 µM
  relative viability: 1.1
[2]; first compound 2.53 µM
  relative viability: 0.879
[2]; first compound 8 µM
  relative viability: 0.662
[3]; first compound 0.08 µM
  relative viability: 0.81
[3]; first compound 0.253 µM
  relative viability: 0.637
[3]; first compound 2.53 µM
  relative viability: 0.834
[3]; first compound 8 µM
  relative viability: 0.654

## NCI-H1703
[2]; first compound 0.08 µM
  relative viability: 0.278
[2]; first compound 0.253 µM
  relative viability: 0.354
[2]; first compound 0.8 µM
  relative viability: 0.273
[2]; first compound 2.53 µM
  relative viability: 0.403
[2]; first compound 8 µM
  relative viability: 0.504
[3]; first compound 0.08 µM
  relative viability: 0.138
[3]; first compound 0.253 µM
  relative viability: 0.135
[3]; first compound 0.8 µM
  relative viability: 0.12
[3]; first compound 8 µM
  relative viability: 0.126

## SK-LU-1
[1]; first compound 0.08 µM
  relative viability: 0.445
[1]; first compound 0.253 µM
  relative viability: 0.387
[1]; first compound 0.8 µM
  relative viability: 0.456
[1]; first compound 2.53 µM
  relative viability: 0.49
[1]; first compound 8 µM
  relative viability: 0.5
[2]; first compound 0.08 µM
  relative viability: 1.22
[2]; first compound 0.253 µM
  relative viability: 1.2
[2]; first compound 0.8 µM
  relative viability: 1.4
[2]; first compound 2.53 µM
  relative viability: 1.03
[2]; first compound 8 µM
  relative viability: 1.05
[4]; first compound 0.08 µM
  relative viability: 0.804
[4]; first compound 0.253 µM
  relative viability: 0.818
[4]; first compound 0.8 µM
  relative viability: 0.768
[4]; first compound 2.53 µM
  relative viability: 0.815
[4]; first compound 8 µM
  relative viability: 0.585

## COR-L 105
[1]; first compound 0.08 µM
  relative viability: 0.46
[1]; first compound 0.253 µM
  relative viability: 0.432
[1]; first compound 0.8 µM
  relative viability: 0.456
[1]; first compound 2.53 µM
  relative viability: 0.437
[1]; first compound 8 µM
  relative viability: 0.45
[2]; first compound 0.08 µM
  relative viability: 1.23
[2]; first compound 0.253 µM
  relative viability: 1.01
[2]; first compound 0.8 µM
  relative viability: 0.851
[2]; first compound 2.53 µM
  relative viability: 0.899
[2]; first compound 8 µM
  relative viability: 0.708
[4]; first compound 0.08 µM
  relative viability: 1.02
[4]; first compound 0.253 µM
  relative viability: 1.01
[4]; first compound 0.8 µM
  relative viability: 0.779
[4]; first compound 2.53 µM
  relative viability: 0.745
[4]; first compound 8 µM
  relative viability: 0.958

## Calu-6
[2]; first compound 0.08 µM
  relative viability: 1.2
[2]; first compound 0.253 µM
  relative viability: 1.02
[2]; first compound 0.8 µM
  relative viability: 0.957
[2]; first compound 2.53 µM
  relative viability: 0.96
[2]; first compound 8 µM
  relative viability: 0.998

## NCI-H358
[1]; first compound 0.08 µM
  relative viability: 0.361
[1]; first compound 0.253 µM
  relative viability: 0.293
[1]; first compound 0.8 µM
  relative viability: 0.372
[1]; first compound 2.53 µM
  relative viability: 0.324
[1]; first compound 8 µM
  relative viability: 0.5
[3]; first compound 0.08 µM
  relative viability: 0.44
[3]; first compound 0.253 µM
  relative viability: 0.502
[3]; first compound 0.8 µM
  relative viability: 0.55
[3]; first compound 2.53 µM
  relative viability: 0.502
[3]; first compound 8 µM
  relative viability: 0.458
[4]; first compound 0.08 µM
  relative viability: 0.828
[4]; first compound 0.253 µM
  relative viability: 0.708
[4]; first compound 0.8 µM
  relative viability: 0.72
[4]; first compound 2.53 µM
  relative viability: 0.781
[4]; first compound 8 µM
  relative viability: 0.619

## NCI-H1944
[1]; first compound 0.08 µM
  relative viability: 0.194
[1]; first compound 0.253 µM
  relative viability: 0.187
[1]; first compound 0.8 µM
  relative viability: 0.185
[1]; first compound 2.53 µM
  relative viability: 0.18
[1]; first compound 8 µM
  relative viability: 0.2
[3]; first compound 0.08 µM
  relative viability: 0.479
[3]; first compound 0.253 µM
  relative viability: 0.675
[3]; first compound 0.8 µM
  relative viability: 0.368
[3]; first compound 2.53 µM
  relative viability: 0.509
[3]; first compound 8 µM
  relative viability: 0.471
[4]; first compound 0.08 µM
  relative viability: 0.567
[4]; first compound 0.253 µM
  relative viability: 0.59
[4]; first compound 0.8 µM
  relative viability: 0.593
[4]; first compound 2.53 µM
  relative viability: 0.5
[4]; first compound 8 µM
  relative viability: 0.524

## NCI-H2342
[1]; first compound 0.08 µM
  relative viability: 0.521
[1]; first compound 0.253 µM
  relative viability: 0.531
[1]; first compound 0.8 µM
  relative viability: 0.519
[1]; first compound 2.53 µM
  relative viability: 0.613
[1]; first compound 8 µM
  relative viability: 0.469
[3]; first compound 0.08 µM
  relative viability: 0.456
[3]; first compound 0.253 µM
  relative viability: 0.459
[3]; first compound 0.8 µM
  relative viability: 0.526
[3]; first compound 2.53 µM
  relative viability: 0.403
[3]; first compound 8 µM
  relative viability: 0.438
[4]; first compound 0.08 µM
  relative viability: 0.833
[4]; first compound 0.253 µM
  relative viability: 0.836
[4]; first compound 0.8 µM
  relative viability: 0.975
[4]; first compound 2.53 µM
  relative viability: 1.03
[4]; first compound 8 µM
  relative viability: 0.825

## EBC-1
[2]; first compound 0.08 µM
  relative viability: 0.516
[2]; first compound 0.253 µM
  relative viability: 0.528
[2]; first compound 0.8 µM
  relative viability: 0.535
[2]; first compound 2.53 µM
  relative viability: 0.715
[2]; first compound 8 µM
  relative viability: 0.542

## NCI-H1299
[2]; first compound 0.08 µM
  relative viability: 1.08
[2]; first compound 0.253 µM
  relative viability: 1.06
[2]; first compound 0.8 µM
  relative viability: 1.09
[2]; first compound 2.53 µM
  relative viability: 0.989
[2]; first compound 8 µM
  relative viability: 0.945

## NCI-H2228
[1]; first compound 0.08 µM
  relative viability: 0.358
[1]; first compound 0.253 µM
  relative viability: 0.221
[1]; first compound 0.8 µM
  relative viability: 0.225
[1]; first compound 2.53 µM
  relative viability: 0.348
[1]; first compound 8 µM
  relative viability: 0.24
[2]; first compound 0.08 µM
  relative viability: 1.25
[2]; first compound 0.253 µM
  relative viability: 0.922
[2]; first compound 0.8 µM
  relative viability: 0.949
[2]; first compound 2.53 µM
  relative viability: 1.1
[2]; first compound 8 µM
  relative viability: 0.932
[4]; first compound 0.08 µM
  relative viability: 0.577
[4]; first compound 0.253 µM
  relative viability: 0.6
[4]; first compound 0.8 µM
  relative viability: 0.725
[4]; first compound 2.53 µM
  relative viability: 0.692
[4]; first compound 8 µM
  relative viability: 0.563
